The values that follow come from the supplement of paper PMC10307832.

Test in all cases: relative viability (nuclei count vs DMSO), 5 days (fraction); higher = more cells survive
Compound in experiment [1]: CC1=CC(=CC=C1)NC2=NC(=CS2)C3=CC=NC=C3 + CC(=O)c1c(C)c2cnc(Nc3ccc(N4CCNCC4)cn3)nc2n(C2CCCC2)c1=O [Palbociclib] (partner 0.5 µM)
The procedure, abridged: (§1)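 Lung cancer cell lines in 1536-well plates were dosed by pin tool the day after seeding, either with one drug alone or with a fixed anchor-drug dose plus five library-drug doses (not always all listed) in √10 steps. After 5 days, cells were fixed and their nuclei stained in one step (final 0.05% Triton X-100, 1% formaldehyde, 1 ug/ml Hoechst), then counted on 4× images. Relative viability is the nuclei count in treated wells divided by that in vehicle wells. Values are medians of duplicate plates.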

Compound in experiment [2]: CC1=CC(=CC=C1)NC2=NC(=CS2)C3=CC=NC=C3 + Cc1cc(Nc2cc(N3CCN(C)CC3)nc(Sc3ccc(NC(=O)C4CC4)cc3)n2)n[nH]1 [Tozasertib] (partner 0.1 µM)
The procedure, abridged: as §1

Compound in experiment [3]: CC1=CC(=CC=C1)NC2=NC(=CS2)C3=CC=NC=C3
The gist of the method:
(§2)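 Viability is treated-well nuclei as a fraction of vehicle-well nuclei, reported as the median across plates. Before counting, lung cancer cell lines were kept overnight at 37 °C in 1536-well plates, pinned with five √10-spaced library-drug doses on vehicle-anchored plates, and left 5 days without medium change, then fixed, permeabilised and Hoechst-stained in one step, imaged at 4× and counted by MetaXpress. A plate passed only if control CV was below 25% and at least one doubling occurred.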

Compound in a further experiment: Cc1ccc(NC(=O)c2ccc(CN3CCN(C)CC3)cc2)cc1Nc1nc(-c2cccnc2)cs1 [Masitinib]
The procedure, abridged:
as §2

Regarding UMC-11, the relative viability in experiment [1] (first compound 0.08 µM) turned out to be 0.339; in experiment [1] (first compound 0.253 µM), 0.311; in experiment [1] (first compound 0.8 µM) it was 0.305; in experiment [1] (first compound 2.53 µM), 0.334; in experiment [1] (first compound 8 µM), 0.313; in experiment [2] (first compound 0.08 µM), 0.219. Also, the relative viability in experiment [2] (first compound 0.253 µM) was determined as 0.206; in experiment [2] (first compound 0.8 µM), 0.193; in experiment [2] (first compound 2.53 µM) it was 0.185; in experiment [2] (first compound 8 µM), 0.224; in experiment [3] (0.08 µM), 0.872; in experiment [3] (0.253 µM) it was 0.927. In addition, the relative viability in experiment [3] (0.8 µM) is 0.927; in experiment [3] (2.53 µM) it was 0.93; in experiment [3] (8 µM) it was 1.03; with Masitinib (0.01 µM), 0.926; with Masitinib (0.03162 µM), 0.969; with Masitinib (0.1 µM), 1.09. The relative viability is 0.961 in the experiment with Masitinib (0.3162 µM) and 1.06 in the experiment with Masitinib (1 µM).
